Measured values as given in patent publication US4820695A, “C-20-dihydro-deoxy-(cyclic amino)-derivatives of macrolide antibiotics” (priority 1987, dated 1989).
Converted amounts (≈) assume the structure as drawn. Where two headings read alike, the source gives them in different places.

Columns and labels:
Escherichia coli N10 = assay: MIC, standard agar-dilution assay (Table IX); assay type: cell-based; conditions: read-out: MIC
[1] = tested on: Streptococcus pneumoniae Park I; assay: MIC, standard agar-dilution assay (Table IX); assay type: cell-based; conditions: Streptococcus pneumoniae Park I; agar-dilution; read-out: MIC
[2] = tested on: Streptococcus pyogenes C203; assay: ED50 in mice experimentally infected with S. pyogenes C203 (Table XI); assay type: in vivo; conditions: Streptococcus pyogenes, doses given 1 and 4 hours postinfection, read-out: ED50
Summary of the method: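 Protective ED50 (mg/kg × 2) was determined as the dose sparing half the animals. Test compound was given twice, at 1 and 4 hours after experimental S. pyogenes C203 infection of mice.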

[3] = tested on: Staphylococcus aureus X400; assay: MIC, standard agar-dilution assay (Table IX); assay type: cell-based; conditions: Staphylococcus aureus X400, Methicillin-resistant strain, read-out: MIC
[4] = tested on: Mycoplasma gallisepticum 29C; assay: MIC, broth-dilution microtiter test (Table X); assay type: cell-based; conditions: Mycoplasmoides gallisepticum, read-out: MIC
Text: (§1) The MIC's in Table X were obtained using conventional broth-dilution microtiter tests.

[5] = tested on: Pasteurella hemolytica 22C; assay: MIC, broth-dilution microtiter test (Table X); assay type: cell-based; conditions: read-out: MIC
Text: as §1

Mycoplasma synoviae 40A = assay: MIC, broth-dilution microtiter test (Table X); assay type: cell-based; conditions: Mycoplasmopsis synoviae, read-out: MIC
Text: as §1

[6] = tested on: Staphylococcus aureus 19C; assay: MIC, broth-dilution microtiter test (Table X); assay type: cell-based
Text: as §1

[7] = tested on: Pasteurella multocida 60A; assay: MIC, broth-dilution microtiter test (Table X); assay type: cell-based; conditions: Avian isolate, read-out: MIC
Text: as §1

Streptococcus sp. 19F = assay: MIC, broth-dilution microtiter test (Table X); assay type: cell-based; conditions: read-out: MIC
Text: as §1

Mycoplasma hyorhinis 29E = assay: MIC, broth-dilution microtiter test (Table X); assay type: cell-based; conditions: read-out: MIC
Text: as §1

[8] = tested on: Mycoplasma hyopneumoniae S5972; assay: MIC, broth-dilution microtiter test (Table X); assay type: cell-based; conditions: Mesomycoplasma hyopneumoniae, read-out: MIC
Text: as §1

[9] = tested on: Pasteurella multocida 17E; assay: MIC, broth-dilution microtiter test (Table X); assay type: cell-based; conditions: Bovine isolate, read-out: MIC
Text: as §1

Staphyloccus aureus X1.1 = assay: MIC, standard agar-dilution assay (Table IX); assay type: cell-based, Staphylococcus aureus; conditions: Staphylococcus aureus, read-out: MIC
[10] = tested on: Streptococcus Group D X66; assay: MIC, standard agar-dilution assay (Table IX); assay type: cell-based; conditions: read-out: MIC
Escherichia coli TEM = assay: MIC, standard agar-dilution assay (Table IX); assay type: cell-based; conditions: read-out: MIC
[11] = tested on: Streptococcus Group D 2041; assay: MIC, standard agar-dilution assay (Table IX); assay type: cell-based; conditions: GROUPD2041, read-out: MIC
[12] = tested on: Staphylococcus aureus S13E; assay: MIC, standard agar-dilution assay (Table IX); assay type: cell-based; conditions: Staphylococcus aureus, S13E
[13] = tested on: Haemophilus influenzae 76; assay: MIC, standard agar-dilution assay (Table IX); assay type: cell-based; conditions: Haemophilus influenzae 76, Ampicillin-resistant strain, read-out: MIC
[14] = tested on: Streptococcus pyogenes C203; assay: MIC, standard agar-dilution assay (Table IX); assay type: cell-based; conditions: read-out: MIC
[15] = tested on: Haemophilus influenzae C.L.; assay: MIC, standard agar-dilution assay (Table IX); assay type: cell-based; conditions: Ampicillin-sensitive strain, read-out: MIC
[16] = tested on: Staphylococcus epidermidis EPI1; assay: MIC, standard agar-dilution assay (Table IX); assay type: cell-based; conditions: Staphylococcus epidermidis EPI1; agar-dilution; read-out: MIC
[17] = tested on: Staphylococcus aureus V41; assay: MIC, standard agar-dilution assay (Table IX); assay type: cell-based; conditions: Staphylococcus aureus V41, Penicillin-resistant strain, read-out: MIC
Klebsiella X26 = assay: MIC, standard agar-dilution assay (Table IX); assay type: cell-based; conditions: read-out: MIC
Escherichia coli EC14 = assay: MIC, standard agar-dilution assay (Table IX); assay type: cell-based; conditions: read-out: MIC
[18] = tested on: Staphylococcus epidermidis 222; assay: MIC, standard agar-dilution assay (Table IX); assay type: cell-based; conditions: read-out: MIC
Staphylococcus aureus = assay: MIC, broth-dilution microtiter test (Table X); assay type: cell-based; conditions: read-out: MIC
Text: as §1

Group D strain 9960 = assay: MIC, standard agar-dilution assay (Table IX); assay type: cell-based, Streptococcus Group D; conditions: tested using predecessor Group D strain 9960
[19] = Titratable groups in 66% aqueous DMF (Tables XIV-XVI); assay type: physicochemical
Text: ^c Run in 66% aqueous DMF
^d Run in 66% aqueous DMF

CCC1OC(=O)CC(O)C(C)C(OC2OC(C)C(O)C(N(C)C)C2O)C(CCN2CCC3CCCCC3C2)CC(C)C(=O)C=CC(C)=CC1COC1OC(C)C(O)C(OC)C1OC (stereo not shown) [Compound D29, 20-DH-DO-20-(decahydroisoquinolin-2-yl)desmycosin]
MIC (Escherichia coli N10): 64 µg/mL (≈ 71.5 µM) | MIC [1]: 0.5 µg/mL (≈ 0.559 µM) | ED50 ([2]; C203, Oral): 10.3 mg/kg | ED50 ([2]; C203, sc, Subcutaneous): 1.56 mg/kg | MIC [3]: 0.5 µg/mL (≈ 0.559 µM) | MIC [4]: 0.195 µg/mL (≈ 0.218 µM) | MIC [5]: 6.25 µg/mL (≈ 6.98 µM) | MIC (Mycoplasma synoviae 40A): < 0.048 µg/mL | MIC [6]: 1.56 µg/mL (≈ 1.74 µM) | MIC [7]: 6.25 µg/mL (≈ 6.98 µM) | MIC (Streptococcus sp. 19F): 1.56 µg/mL (≈ 1.74 µM) | MIC (Mycoplasma hyorhinis 29E): 6.25 µg/mL (≈ 6.98 µM) | MIC [8]: 0.195 µg/mL (≈ 0.218 µM) | MIC [9]: 3.12 µg/mL (≈ 3.49 µM) | MIC (Staphyloccus aureus X1.1): 0.5 µg/mL (≈ 0.559 µM) | MIC [10]: 2 µg/mL (≈ 2.23 µM) | MIC (Escherichia coli TEM): 16 µg/mL (≈ 17.9 µM) | MIC [11]: 8 µg/mL (≈ 8.94 µM) | MIC [12]: 0.5 µg/mL (≈ 0.559 µM) | MIC [13]: 4 µg/mL (≈ 4.47 µM) | MIC [14]: 0.5 µg/mL (≈ 0.559 µM) | MIC [15]: 4 µg/mL (≈ 4.47 µM) | MIC [16]: 0.5 µg/mL (≈ 0.559 µM) | MIC [17]: 0.5 µg/mL (≈ 0.559 µM) | MIC (Klebsiella X26): 32 µg/mL (≈ 35.7 µM) | MIC (Escherichia coli EC14): 64 µg/mL (≈ 71.5 µM) | MIC [18]: 0.125 µg/mL (≈ 0.14 µM)

CCC1OC(=O)CC(O)C(C)C(OC2OC(C)C(O)C(N(C)C)C2O)C(CCN2CCCCCCC2)CC(C)C(=O)C=CC(C)=CC1COC1OC(C)C(O)C(OC)C1OC (stereo not shown) [Compound D6]
MIC (Escherichia coli N10): 64 µg/mL (≈ 73.6 µM) | MIC [1]: 0.5 µg/mL (≈ 0.575 µM) | ED50 ([2]; C203, Oral): 14 mg/kg | ED50 ([2]; C203, sc, Subcutaneous): 0.7 mg/kg | MIC [3]: 0.5 µg/mL (≈ 0.575 µM) | MIC [4]: 1.56 µg/mL (≈ 1.79 µM) | MIC [5]: 1.56 µg/mL (≈ 1.79 µM) | MIC (Mycoplasma synoviae 40A): 0.78 µg/mL (≈ 0.897 µM) | MIC (Staphylococcus aureus): 0.78 µg/mL (≈ 0.897 µM) | MIC [7]: 6.25 µg/mL (≈ 7.19 µM) | MIC (Streptococcus sp. 19F): 0.78 µg/mL (≈ 0.897 µM) | MIC (Mycoplasma hyorhinis 29E): 50 µg/mL (≈ 57.5 µM) | MIC [8]: 1.56 µg/mL (≈ 1.79 µM) | MIC [9]: 3.12 µg/mL (≈ 3.59 µM) | MIC (Staphyloccus aureus X1.1): 0.5 µg/mL (≈ 0.575 µM) | MIC [10]: 4 µg/mL (≈ 4.6 µM) | MIC (Escherichia coli TEM): 16 µg/mL (≈ 18.4 µM) | MIC (Group D strain 9960): 8 µg/mL (≈ 9.2 µM) | MIC [12]: 0.5 µg/mL (≈ 0.575 µM) | MIC [13]: 16 µg/mL (≈ 18.4 µM) | MIC [14]: 0.5 µg/mL (≈ 0.575 µM) | MIC [15]: 16 µg/mL (≈ 18.4 µM) | MIC [16]: 5 µg/mL (≈ 5.75 µM) | Titratable groups [19]: 7.3 | Titratable groups (first value) [19]: 5.4 | pKa ([19]; Titratable groups): 9.4 | pKa ([19]; Titratable groups (first value)): 7.9 | pKa ([19]; Titratable groups (third printed value)): 9.2 | MIC [17]: 0.5 µg/mL (≈ 0.575 µM) | MIC (Klebsiella X26): 16 µg/mL (≈ 18.4 µM) | MIC (Escherichia coli EC14): 64 µg/mL (≈ 73.6 µM) | MIC [18]: 0.25 µg/mL (≈ 0.288 µM)

CCC1OC(=O)CC(O)C(C)C(OC2OC(C)C(O)C(N(C)C)C2O)C(CCN2CCC3CCCCC32)CC(C)C(=O)C=CC(C)=CC1COC1OC(C)C(O)C(OC)C1OC (stereo not shown) [Compound D44]
ED50 ([2]; C203, Oral): 37.9 mg/kg | ED50 ([2]; C203, sc, Subcutaneous): 0.69 mg/kg | MIC [4]: 1.56 µg/mL (≈ 1.77 µM) | MIC [5]: 12.5 µg/mL (≈ 14.2 µM) | MIC (Mycoplasma synoviae 40A): 0.097 µg/mL (≈ 0.11 µM) | MIC [6]: 3.12 µg/mL (≈ 3.54 µM) | MIC [7]: 12.5 µg/mL (≈ 14.2 µM) | MIC (Streptococcus sp. 19F): 1.56 µg/mL (≈ 1.77 µM) | MIC (Mycoplasma hyorhinis 29E): 50 µg/mL (≈ 56.7 µM) | MIC [8]: 0.39 µg/mL (≈ 0.443 µM) | MIC [9]: 12.5 µg/mL (≈ 14.2 µM)

CCC1OC(=O)CC(O)C(C)C(OC2OC(C)C(O)C(N(C)C)C2O)C(CCN2C(C)CCCC2C)CC(C)C(=O)C=CC(C)=CC1COC1OC(C)C(O)C(OC)C1OC (stereo not shown) [Compound D41]
MIC (Escherichia coli N10): > 128 µg/mL | MIC [1]: 1 µg/mL (≈ 1.15 µM) | ED50 ([2]; C203, Oral): > 100 mg/kg | ED50 ([2]; C203, sc, Subcutaneous): 2.04 mg/kg | MIC [3]: 8 µg/mL (≈ 9.2 µM) | MIC [4]: 6.25 µg/mL (≈ 7.19 µM) | MIC [5]: > 50 µg/mL | MIC (Mycoplasma synoviae 40A): 1.56 µg/mL (≈ 1.79 µM) | MIC [6]: 6.25 µg/mL (≈ 7.19 µM) | MIC [7]: 50 µg/mL (≈ 57.5 µM) | MIC (Streptococcus sp. 19F): 6.25 µg/mL (≈ 7.19 µM) | MIC (Mycoplasma hyorhinis 29E): 50 µg/mL (≈ 57.5 µM) | MIC [8]: 3.12 µg/mL (≈ 3.59 µM) | MIC [9]: 25 µg/mL (≈ 28.8 µM) | MIC (Staphyloccus aureus X1.1): 8 µg/mL (≈ 9.2 µM) | MIC [10]: 32 µg/mL (≈ 36.8 µM) | MIC (Escherichia coli TEM): > 128 µg/mL | MIC [11]: 32 µg/mL (≈ 36.8 µM) | MIC [12]: 8 µg/mL (≈ 9.2 µM) | MIC [13]: 64 µg/mL (≈ 73.6 µM) | MIC [14]: 1 µg/mL (≈ 1.15 µM) | MIC [15]: 64 µg/mL (≈ 73.6 µM) | MIC [16]: 8 µg/mL (≈ 9.2 µM) | MIC [17]: 8 µg/mL (≈ 9.2 µM) | MIC (Klebsiella X26): 128 µg/mL (≈ 147 µM) | MIC (Escherichia coli EC14): > 128 µg/mL | MIC [18]: 2 µg/mL (≈ 2.3 µM)
